We go through six compounds from paper PMC10303271, “Synthesis and Receptor Binding Studies of α5 GABAAR Selective Novel Imidazodiazepines Targeted for Psychiatric and Cognitive Disorders” (Molecules, 2023).

Like-named read-outs stand apart in the source and are kept apart here.

Experiment [1] deals with peripheral benzodiazepine receptors (PBR) (Rattus norvegicus, UniProt P16257). Put plainly: PDSP radioligand binding at PBR. An excerpt: The compounds were also screened at PDSP to determine any binding with peripheral benzodiazepine receptors (PBR). A number of biological processes are associated with PBR. The most prevalent are transportation of anions for mitochondrial transmembrane potential, biosynthesis of heme, regulation of neurological damage, proliferation, cell death (apoptosis), as well as regulation of steroidogenesis. The test compounds were screened in the primary binding assay to determine the % inhibition at PBR. […] These compounds were then subjected to a secondary screening to determine the Ki (nM) value for PBR receptors.
Sequence of peripheral benzodiazepine receptors (PBR) (P16257 whole entry): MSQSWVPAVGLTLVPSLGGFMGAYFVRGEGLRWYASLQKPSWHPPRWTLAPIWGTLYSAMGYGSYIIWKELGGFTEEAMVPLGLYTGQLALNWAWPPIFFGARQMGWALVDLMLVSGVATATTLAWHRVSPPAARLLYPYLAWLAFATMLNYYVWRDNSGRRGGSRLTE
(§1) The NIMH PDSP assay protocol book [https://kidbdev.med.unc.edu/databases/PDSP%20Protocols%20II%202013-03-28.pdf accessed on 23 April 2023]. describes the protocols for primary and secondary radio-ligand binding assays. These assays were carried out in a final volume of 125 µL per well in the appropriate binding buffer.
(§2) The binding of a ligand to a receptor, ion channel, or transporter was determined in the […] of 10 µM of the appropriate reference compound. […] Plates were incubated in the dark for 90 min at rt, and the reactions were stopped by vacuum filtration onto 0.3% polyethyleneimine (PEI) soaked 96-well filter mats using a 96-well Filtermateharvester. This was followed by three washes with cold PBS buffer. Radioactivity was then counted on a Microbeta counter. Nonlinear regression was used to analyze the data with N = 6 replicates.

A further experiment addresses T1, Alpha2B (Homo sapiens, UniProt P18089).
T1 construct: purchased NIMH Psychoactive Drug Screening Program (PDSP)
T1 sequence (P18089 1-450): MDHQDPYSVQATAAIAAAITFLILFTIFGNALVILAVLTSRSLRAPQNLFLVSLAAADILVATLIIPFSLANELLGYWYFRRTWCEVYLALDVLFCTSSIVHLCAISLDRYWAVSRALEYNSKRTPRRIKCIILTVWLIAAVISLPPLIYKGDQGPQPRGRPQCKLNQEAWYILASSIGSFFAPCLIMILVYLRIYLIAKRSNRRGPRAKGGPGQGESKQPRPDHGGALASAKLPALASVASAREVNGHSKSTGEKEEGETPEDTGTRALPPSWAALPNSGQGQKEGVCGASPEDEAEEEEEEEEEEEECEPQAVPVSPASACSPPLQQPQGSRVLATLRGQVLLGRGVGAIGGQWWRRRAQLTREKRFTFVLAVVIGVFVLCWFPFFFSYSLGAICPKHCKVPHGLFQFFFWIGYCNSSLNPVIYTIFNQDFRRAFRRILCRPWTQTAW
Put plainly: PDSP primary binding Alpha2B. The note with it: 1.5 h; primary binding, 10,000 nM; last figure of the line = mean of the 4 before it; read-out: Alpha2B, PDSP raw data, mean. As for the experimental part: (§3) To determine if any off-target receptor-binding effects are present, all the novel ligands were sent to the National Institute of Mental Health (NIMH), Psychoactive Drug Screening Program (PDSP). The ligands were screened over a panel of 47 receptors, ion channels, and transporters to determine any other possible interactions with […]. The hERG-binding was also determined. […] No binding of the test compounds to calcium channels was observed. […] It is necessary to screen the compounds for hERG-binding during the early process of drug discovery. The unintentional binding of many drugs to hERG can cause blockade of hERG K+ channels in the heart, which can cause many side effects including cardiac arrhythmias and sudden death. […] All of the α5 imidazodiazepines were tested for hERG-binding.
as §1, §2

The next experiment has as its target T2, Beta2 (Homo sapiens, UniProt P07550).
T2 construct: purchased NIMH Psychoactive Drug Screening Program (PDSP)
The experiment is described as follows: PDSP primary binding Beta2. As to conditions: 1.5 h; primary binding, 10,000 nM; last figure of the line = mean of the 4 before it; read-out: Beta2, PDSP raw data, mean. Here is the method:
as §3, §1, §2

The target of a further experiment is T3, D3 (Homo sapiens, UniProt P35462).
T3 construct: purchased NIMH Psychoactive Drug Screening Program (PDSP)
T3 sequence (P35462 whole entry): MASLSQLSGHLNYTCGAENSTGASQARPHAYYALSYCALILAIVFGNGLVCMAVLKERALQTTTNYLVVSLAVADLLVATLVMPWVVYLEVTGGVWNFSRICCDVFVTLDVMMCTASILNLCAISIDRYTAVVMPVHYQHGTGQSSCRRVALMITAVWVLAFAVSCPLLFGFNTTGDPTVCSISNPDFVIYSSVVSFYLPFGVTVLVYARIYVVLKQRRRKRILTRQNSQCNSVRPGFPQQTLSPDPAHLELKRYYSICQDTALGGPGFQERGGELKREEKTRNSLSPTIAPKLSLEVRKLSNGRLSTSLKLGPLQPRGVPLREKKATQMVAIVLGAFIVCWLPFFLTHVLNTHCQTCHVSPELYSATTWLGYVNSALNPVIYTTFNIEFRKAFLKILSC
The experiment is described as follows: PDSP primary binding D3. As to conditions: 1.5 h; primary binding, 10,000 nM; last figure of the line = mean of the 4 before it; read-out: D3, PDSP raw data, mean. As for the experimental part: as §3, §1, §2

Another experiment addresses T4, M1 (Homo sapiens, UniProt P11229).
T4 construct: purchased NIMH Psychoactive Drug Screening Program (PDSP)
T4 sequence (P11229 1-460): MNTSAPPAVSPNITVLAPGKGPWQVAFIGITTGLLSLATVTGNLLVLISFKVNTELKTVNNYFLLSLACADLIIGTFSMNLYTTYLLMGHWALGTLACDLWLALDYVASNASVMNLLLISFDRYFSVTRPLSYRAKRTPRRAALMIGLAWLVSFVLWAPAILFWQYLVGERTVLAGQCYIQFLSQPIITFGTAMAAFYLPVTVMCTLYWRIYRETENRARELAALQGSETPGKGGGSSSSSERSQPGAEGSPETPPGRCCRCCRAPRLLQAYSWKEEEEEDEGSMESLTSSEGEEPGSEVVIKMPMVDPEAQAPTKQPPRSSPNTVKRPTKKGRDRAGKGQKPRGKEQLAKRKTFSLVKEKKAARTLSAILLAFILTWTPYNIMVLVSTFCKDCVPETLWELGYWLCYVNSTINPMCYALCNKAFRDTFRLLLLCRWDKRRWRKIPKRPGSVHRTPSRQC
Put plainly: PDSP primary binding M1. As to conditions: primary binding, 10,000 nM; last figure of the line = mean of the 4 before it; read-out: M1, PDSP raw data, mean. Here is the method: as §3, §1, §2

The next experiment relates to Sigma 1. Put plainly: PDSP primary binding Sigma 1. The note with it: primary binding, 10,000 nM; last figure of the line = mean of the 4 before it. Here is the method: as §3, §1, §2
For a further experiment, the system named is Sigma 2. The experiment is described as follows: PDSP primary binding Sigma 2. The note with it: primary binding, 10,000 nM; last figure of the line = mean of the 4 before it. As for the experimental part: as §3, §1, §2
A further experiment deals with T5, NTS1 (Homo sapiens, UniProt P30989).
T5 construct: purchased NIMH Psychoactive Drug Screening Program (PDSP)
T5 sequence (P30989 whole entry): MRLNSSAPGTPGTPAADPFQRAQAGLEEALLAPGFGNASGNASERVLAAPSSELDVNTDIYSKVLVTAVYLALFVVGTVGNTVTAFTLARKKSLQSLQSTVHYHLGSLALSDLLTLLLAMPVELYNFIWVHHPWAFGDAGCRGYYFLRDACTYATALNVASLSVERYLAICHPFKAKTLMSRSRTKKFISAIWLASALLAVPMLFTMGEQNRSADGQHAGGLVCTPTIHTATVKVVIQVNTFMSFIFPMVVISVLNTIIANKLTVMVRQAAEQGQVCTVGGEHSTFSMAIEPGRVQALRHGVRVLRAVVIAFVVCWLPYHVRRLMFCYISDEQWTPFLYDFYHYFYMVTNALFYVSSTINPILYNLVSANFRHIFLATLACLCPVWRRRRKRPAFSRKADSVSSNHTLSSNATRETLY
The experiment is described as follows: PDSP primary binding NTS1. The note with it: primary binding, 10,000 nM; last figure of the line = mean of the 4 before it; read-out: NTS1, PDSP raw data, mean. Here is the method:
as §3, §1, §2

In a further experiment the target is T6, Alpha2Beta4 (Rattus norvegicus, UniProt P12389+P12392).
T6 construct: purchased NIMH Psychoactive Drug Screening Program (PDSP)
T6 sequence (P12389 28-511): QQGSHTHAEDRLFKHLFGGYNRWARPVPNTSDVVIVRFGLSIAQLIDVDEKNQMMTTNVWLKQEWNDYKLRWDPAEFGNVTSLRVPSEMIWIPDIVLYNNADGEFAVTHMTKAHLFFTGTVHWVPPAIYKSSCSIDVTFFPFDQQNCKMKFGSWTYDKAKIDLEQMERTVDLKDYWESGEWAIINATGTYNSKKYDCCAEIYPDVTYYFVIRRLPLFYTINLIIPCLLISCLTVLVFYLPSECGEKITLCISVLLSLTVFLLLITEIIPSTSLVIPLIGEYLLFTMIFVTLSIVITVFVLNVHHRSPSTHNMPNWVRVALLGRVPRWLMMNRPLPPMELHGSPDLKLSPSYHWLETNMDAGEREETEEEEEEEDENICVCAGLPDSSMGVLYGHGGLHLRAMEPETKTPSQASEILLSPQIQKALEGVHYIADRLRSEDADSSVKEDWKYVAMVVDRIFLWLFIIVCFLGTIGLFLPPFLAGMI
T6 sequence (P12392 21-495): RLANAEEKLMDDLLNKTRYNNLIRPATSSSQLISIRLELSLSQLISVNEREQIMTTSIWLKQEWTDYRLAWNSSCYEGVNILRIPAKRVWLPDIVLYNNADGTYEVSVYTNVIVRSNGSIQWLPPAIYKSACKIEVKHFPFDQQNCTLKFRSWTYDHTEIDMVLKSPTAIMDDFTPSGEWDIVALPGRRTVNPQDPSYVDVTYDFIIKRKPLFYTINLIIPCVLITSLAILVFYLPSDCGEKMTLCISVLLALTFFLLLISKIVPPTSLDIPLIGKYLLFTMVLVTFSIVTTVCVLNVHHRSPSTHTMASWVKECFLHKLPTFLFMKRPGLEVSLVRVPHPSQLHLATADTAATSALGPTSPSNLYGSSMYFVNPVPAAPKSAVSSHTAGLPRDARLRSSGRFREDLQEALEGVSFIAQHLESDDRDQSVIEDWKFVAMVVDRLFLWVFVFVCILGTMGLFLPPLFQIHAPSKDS
The experiment is described as follows: PDSP primary binding Alpha2Beta4. The note with it: primary binding, 10,000 nM; last figure of the line = mean of the 4 before it; read-out: Alpha2Beta4, PDSP raw data, mean. Here is the method:
as §3, §1, §2

Another experiment deals with T7, Alpha4Beta4 (Rattus norvegicus, UniProt P09483+P12392).
T7 construct: purchased NIMH Psychoactive Drug Screening Program (PDSP)
T7 sequence (P09483 31-630): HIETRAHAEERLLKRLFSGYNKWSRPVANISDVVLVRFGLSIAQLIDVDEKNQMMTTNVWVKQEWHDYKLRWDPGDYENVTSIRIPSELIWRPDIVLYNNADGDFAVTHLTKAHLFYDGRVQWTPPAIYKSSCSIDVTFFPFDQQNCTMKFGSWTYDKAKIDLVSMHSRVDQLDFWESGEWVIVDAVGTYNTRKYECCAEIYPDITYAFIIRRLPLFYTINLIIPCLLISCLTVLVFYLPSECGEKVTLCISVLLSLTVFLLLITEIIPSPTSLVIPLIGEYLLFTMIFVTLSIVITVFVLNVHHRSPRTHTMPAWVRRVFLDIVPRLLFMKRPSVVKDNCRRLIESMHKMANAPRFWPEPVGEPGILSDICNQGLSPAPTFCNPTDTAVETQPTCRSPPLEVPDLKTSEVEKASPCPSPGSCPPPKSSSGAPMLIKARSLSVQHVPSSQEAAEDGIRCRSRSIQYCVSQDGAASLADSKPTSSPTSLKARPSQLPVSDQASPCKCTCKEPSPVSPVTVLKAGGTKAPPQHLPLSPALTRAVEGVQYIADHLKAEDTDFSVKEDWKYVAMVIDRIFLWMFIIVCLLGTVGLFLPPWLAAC
T7 sequence (P12392 21-495): as the sequence (P12392 21-495) above
The experiment is described as follows: PDSP primary binding Alpha4Beta4. The note with it: primary binding, 10,000 nM; last figure of the line = mean of the 4 before it; read-out: Alpha4Beta4, PDSP raw data, mean. Here is the method: as §3, §1, §2

The test system of the next experiment is Alpha7. The experiment is described as follows: PDSP primary binding Alpha7. The note with it: primary binding, 10,000 nM; last figure of the line = mean of the 4 before it. As for the experimental part: as §3, §1, §2
The next experiment concerns the target T8, V2 (Homo sapiens, UniProt P30518).
T8 construct: purchased NIMH Psychoactive Drug Screening Program (PDSP)
Put plainly: PDSP primary binding V2. The note with it: primary binding, 10,000 nM; last figure of the line = mean of the 4 before it; read-out: V2, PDSP raw data, mean. As for the experimental part:
as §3, §1, §2

Where [2] appears, read: 1.5 h, primary binding, 10,000 nM, last figure of the line = mean of the 4 before it, some tables list PBR twice, read-out: PBR, PDSP raw data, mean.
The mark [3] stands for this setting: at 10,000 nM, N = 5, read-out: Binding Affinity at PBR % Inhibition (Primary).

T2 sequence (P07550 whole entry): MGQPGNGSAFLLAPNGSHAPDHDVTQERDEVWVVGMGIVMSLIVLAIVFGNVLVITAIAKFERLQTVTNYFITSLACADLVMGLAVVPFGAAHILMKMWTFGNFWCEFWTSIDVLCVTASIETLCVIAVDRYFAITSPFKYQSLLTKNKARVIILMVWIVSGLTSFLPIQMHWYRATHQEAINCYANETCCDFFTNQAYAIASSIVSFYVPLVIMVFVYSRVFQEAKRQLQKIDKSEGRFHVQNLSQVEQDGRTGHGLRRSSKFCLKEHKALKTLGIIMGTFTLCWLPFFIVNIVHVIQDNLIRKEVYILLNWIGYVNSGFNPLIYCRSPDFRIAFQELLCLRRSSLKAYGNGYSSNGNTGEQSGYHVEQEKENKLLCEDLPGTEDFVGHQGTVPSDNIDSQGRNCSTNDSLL
T8 sequence (P30518 whole entry): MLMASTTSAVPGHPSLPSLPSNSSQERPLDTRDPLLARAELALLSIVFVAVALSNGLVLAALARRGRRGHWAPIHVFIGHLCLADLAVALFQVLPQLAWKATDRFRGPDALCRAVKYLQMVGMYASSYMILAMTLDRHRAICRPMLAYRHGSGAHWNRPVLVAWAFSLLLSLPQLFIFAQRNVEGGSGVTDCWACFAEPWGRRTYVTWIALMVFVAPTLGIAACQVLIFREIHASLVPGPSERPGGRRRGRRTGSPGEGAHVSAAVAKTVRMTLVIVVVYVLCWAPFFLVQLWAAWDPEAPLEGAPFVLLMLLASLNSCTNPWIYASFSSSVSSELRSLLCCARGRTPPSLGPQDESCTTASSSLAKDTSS

With `CCc1noc(-c2ncn3c2[C@@H](C)N=C(c2ccccc2F)c2cc(Cl)ccc2-3)n1` [Compound 36, (R)-5-(8-Chloro-6-(2′-fluorophenyl)-4-methyl-4H-benzo[f]imidazo[1,5-a][1,4]diazepin-3-yl)-3-ethyl-1,2,4-oxadiazole], affinity in [1] was put at a Ki of 982 ± 405 nM. In addition, the inhibition at 10 µM in experiment [1] (setting [2]) was 57.2%; in experiment [1] (setting [3]), 57.2 ± 10.3%; at Alpha2B, 16.6%; at Beta2, 2.67%; at D3, 4.97%; on M1, -0.27%. Besides, the inhibition at 10 µM is -16.9% at NTS1, 10.9% at Alpha2Beta4, 10.2% at Alpha4Beta4 and 12.6% at V2. Also, in the experiment with Sigma 1, the “Sigma 1, PDSP raw data, mean” value was 46%. For the same compound, the “Sigma 2, PDSP raw data, mean” value in the experiment on Sigma 2 is listed as 81.41%. In addition, the “Alpha7, PDSP raw data, mean” value in the experiment on Alpha7 is -13.86%.
Turning to `C[C@H]1N=C(c2ccccc2F)c2cc(-c3ccccc3)ccc2-n2cnc(C(=O)N(C)C)c21` [Compound 5, (R)-6-(2′-Fluorophenyl)-N,N,4-trimethyl-8-phenyl-4H-benzo[f]imidazo[1,5-a][1,4]diazepine-3-carboxamide], the inhibition at 10 µM in experiment [1] (setting [2]) was 22.3%; at Alpha2B it was 68.9%; at Beta2, -0.87%; at D3, -3.57%; at M1, -1.6%; on NTS1, -16.7%. Further, the inhibition at 10 µM was 4.82% on Alpha2Beta4, 1.99% at Alpha4Beta4 and 19.7% on V2. The “Sigma 1, PDSP raw data, mean” value in the experiment with Sigma 1 amounted to 46.91%. Besides, the “Sigma 2, PDSP raw data, mean” value in the experiment on Sigma 2 is 43.63%. Also, in the experiment with Alpha7, the “Alpha7, PDSP raw data, mean” value is recorded as -18.33%.
Consider `C[C@H]1N=C(c2ccccc2F)c2cc(Cl)ccc2-n2cnc(-c3nc(C4CC4)no3)c21` [Compound 38, (R)-5-(8-Chloro-6-(2′-fluorophenyl)-4-methyl-4H-benzo[f]imidazo[1,5-a][1,4]diazepin-3-yl)-3-cyclopropyl-1,2,4-oxadiazole], for which the Ki in experiment [1] turned out to be 617 ± 27.1 nM. Also, the inhibition at 10 µM is 89.5% in experiment [1] (setting [2]); 90 ± 2.13% in experiment [1] (setting [3]); 17.6% on Alpha2B; 1.75% on Beta2; -0.07% on D3; -0.23% on M1. The inhibition at 10 µM at NTS1 was -13.2%; at Alpha2Beta4 it was 0.54%; on Alpha4Beta4, 8.62%; at V2 it was 5.48%. In the experiment with Sigma 1, the “Sigma 1, PDSP raw data, mean” value is -1.51%. The “Sigma 2, PDSP raw data, mean” value in the experiment with Sigma 2 is 80.86%. Further, the “Alpha7, PDSP raw data, mean” value in the experiment on Alpha7 is recorded as 11.55%.
In the case of `C#Cc1ccc2c(c1)C(c1ccccc1F)=N[C@H](C)c1c(C(=S)N(C)C)ncn1-2` [Compound 33, (R)-8-Ethynyl-6-(2′-fluorophenyl)-N,N,4-trimethyl-4H-benzo[f]imidazo[1,5-a][1,4]diazepine-3-carbothioamide], the affinity in [1], expressed as Ki, was 1710 nM. For the same compound, the inhibition at 10 µM in experiment [1] (setting [2]) is 22.3%; in experiment [1] (setting [3]), 66.4 ± 3.3%; on Alpha2B it was 68.9%; on Beta2 it was -0.87%; on D3, -3.57%; on M1 it was -1.6%. Besides, the inhibition at 10 µM is -16.7% on NTS1, 4.82% at Alpha2Beta4, 1.99% on Alpha4Beta4 and 19.7% at V2. Moreover, the “Sigma 1, PDSP raw data, mean” value in the experiment with Sigma 1 is on record as 46.91%. Moreover, the “Sigma 2, PDSP raw data, mean” value in the experiment with Sigma 2 is 43.63%. For the same compound, the “Alpha7, PDSP raw data, mean” value in the experiment on Alpha7 is -18.33%.
Regarding `C#Cc1ccc2c(c1)C(c1ccccc1Cl)=N[C@H](C)c1c(C(=O)NC)ncn1-2` [Compound 21, (R)-6-(2′-Chlorophenyl)-8-ethynyl-N,4-dimethyl-4H-benzo[f]imidazo[1,5-a][1,4]diazepine-3-carboxamide], the inhibition at 10 µM in [1] (setting [2]) was 5.68%; at Alpha2B it was -2.45%; on Beta2, -0.28%; on D3 it was 6.19%; at M1, -8.29%; on NTS1 it was -25.2%. Besides, the inhibition at 10 µM at Alpha2Beta4 stood at 7.67%; on Alpha4Beta4, 14.4%; at V2 it was 43%. The “Sigma 1, PDSP raw data, mean” value in the experiment on Sigma 1 is listed as 44.58%. Besides, the “Sigma 2, PDSP raw data, mean” value with Sigma 2 was 1.04%. In addition, the “Alpha7, PDSP raw data, mean” value with Alpha7 is -10.85%.
`CCc1noc(-c2ncn3c2[C@@H](C)N=C(c2ccccc2F)c2cc(C4CC4)ccc2-3)n1` [Compound 46, (R)-5-(8-Cyclopropyl-6-(2′-fluorophenyl)-4-methyl-4H-benzo[f]imidazo[1,5-a][1,4]diazepin-3-yl)-3-ethyl-1,2,4-oxadiazole]: the affinity in [1] corresponds to a Ki of 627.3 ± 5.72 nM. Further, the inhibition at 10 µM in experiment [1] (setting [2]) is 86.4%; in experiment [1] (setting [3]), 86.4 ± 6.35%; on Alpha2B it was 44.2%; on Beta2, -6.06%; on D3, 27.8%; at M1 it was 0.86%. The inhibition at 10 µM on NTS1 was -29.8%; on Alpha2Beta4, 6.41%; on Alpha4Beta4, 14.2%; on V2, 48.4%. For the same compound, in the experiment on Sigma 1, the “Sigma 1, PDSP raw data, mean” value was 34.74%. In addition, the “Sigma 2, PDSP raw data, mean” value in the experiment on Sigma 2 is recorded as 89.78%. In addition, the “Alpha7, PDSP raw data, mean” value in the experiment with Alpha7 is 4.57%.
